Assays:
cfPac-1 cells = test: MTT viability of cells sorted into low and high surface PS populations after GEM; type: cell-based, human
Procedure: Cell Sorting. Cells were grown to 60-80% confluency then stained with annexin V-FITC as above but without PI. The cells were then passed through a cell sorter (BD Aria III) and cells with low and high surface PS were collected (˜15% of the cells at each end of the peak; see FIG. 1). The cells were placed in 96 well plates and immediately treated with 0, 25 or 50 nM of GEM. The MTT assay (Roche) was conducted 72 hr later to determine the effect of the GEM on cell viability.

[1] = tested on: PDAC cells (MiaPaCa-2, cfPac-1); test: Surface PS by annexin V-FITC flow cytometry after GEM exposure in vitro; type: cell-based, human
Procedure: (§1) Cells were isolated 48 hr. following treatment with 40 mg/kg GEM, stained with annexin V-FITC and analyzed by flow cytometry. Only those cells that were negative for PI staining were assessed for annexin V labeling. Less than 10% of the cells (in vitro or in vivo) were killed by the GEM treatment.
Phosphatidylserine levels measurements. Surface membrane PS levels were measured using annexin V-FITC (Invitrogen, Carlsbad, CA) as previously described (Chu et al. PLoS One 2013; 8(10):e75507, Davis et al. Oncotarget 2019; 10:856-868). In brief, cells were harvested using trypsin-EDTA (Thermo Fisher Scientific); the trypsin was inactivated with complete media and the cells were washed with PBS and resuspended at 1,000,000 cells/ml in annexin staining buffer. Aliquots of cells (0.1 ml/tube) were incubated with 10 μl of annexin V-FITC for 15 minutes at room temperature in the dark. Then 400 μl of annexin staining buffer was added to each tube. Samples were kept on ice and analyzed by flow cytometry within 1 hour after addition of 2 μl of 50 μg/ml propidium iodide (PI; to exclude dead cells). […] To this end, cells were incubated for 24 or 48 hr. with 10 nM-1 μM GEM and then stained with annexin V-FITC and PI and analyzed by flow cytometry.

[2] = tested on: human pancreatic duct epithelial cells (HPDE); test: Surface PS after GEM exposure in normal pancreatic cells; type: cell-based; conditions: response to gemcitabine
Procedure: Phosphatidylserine levels measurements. Surface membrane PS levels were measured using annexin V-FITC (Invitrogen, Carlsbad, CA) as previously described (Chu et al. PLoS One 2013; 8(10):e75507, Davis et al. Oncotarget 2019; 10:856-868). In brief, cells were harvested using trypsin-EDTA (Thermo Fisher Scientific); the trypsin was inactivated with complete media and the cells were washed with PBS and resuspended at 1,000,000 cells/ml in annexin staining buffer. Aliquots of cells (0.1 ml/tube) were incubated with 10 μl of annexin V-FITC for 15 minutes at room temperature in the dark. Then 400 μl of annexin staining buffer was added to each tube. Samples were kept on ice and analyzed by flow cytometry within 1 hour after addition of 2 μl of 50 μg/ml propidium iodide (PI; to exclude dead cells). The effects of GEM exposure on surface PS levels were studied in human PDAC cell lines (cfPac-1 and Mia-PaCa-2), a mouse PDAC cell line (p53 2.1.1) (Collisson et al. Cancer Discov 2012; 2(8):685-93) and immortalized, non-tumorigenic human pancreatic duct epithelial cells (HPDE). To this end, cells were incubated for 24 or 48 hr. with 10 nM-1 μM GEM and then stained with annexin V-FITC and PI and analyzed by flow cytometry.

[3] = tested on: cfPac-1, MiaPaCa-2 and p53.2.2.1 cells; test: Cell cycle analysis by Hoechst staining after GEM or SapC-DOPS; type: cell-based, human, mouse; conditions: GEM 1-2 μM 24 hrs; SapC-DOPS 20-30 μM 72 hrs
Procedure: For cell cycle analyses of cells treated with GEM or SapC-DOPS, MiaPaCa-2, cfPac-1 and p53.2.2.1 cells were cultured to 70% confluency. Cells (2.5×10^5) were plated overnight in 60 mm cell culture plates. MiaPaCa-2, cfPac-1 and p53.2.2.1 were treated with 1 μM, 2 μM, and 1 μM GEM respectively for 24 hrs. or with 30 μM, 25 μM and 20 μM SapC-DOPS respectively for 72 hrs. (MiaPaCa-2 and p53.2.2.1) or 24 hrs (cfPac-1). Following treatment, 10^6 cells were stained with Hoechst 33342 as described above.

[4] = tested on: cfPac-1 and MiaPaCa-2 cells; test: Western blot cyclin B1/cyclin D1 ratio after GEM or SapC-DOPS; type: cell-based, human; conditions: cfPac-1 and MiaPaCa-2, western blot after treatment
Procedure: Protein expression of cyclins D1 (a G1 marker) and B1 (a G2/M marker) following treatment with GEM or SapC-DOPS was measured by western blot and the cyclin B1 to cyclin D1 ratio was quantified in cfPac-1.
Western blot analyses. Following treatment with GEM or SapC-DOPS, cells were washed with PBS and lysed in RIPA Buffer (Sigma) supplemented with protease inhibitor cocktail tablets (Roche). A total of 30 μg of protein extract was separated using 4-15% Mini-PROTEAN Precast Gels (Bio-Rad) and transferred to Hybond-ECL Nitrocellulose membrane (Biosciences). Membranes were blocked for 1 hr. in 5% nonfat dry milk in 0.1% Tween-20 in PBS at 4° C. Blocked membranes were incubated with primary antibodies overnight at 4° C. Subsequently, membranes were washed 3 times for 10 min. with 0.1% Tween-20 in PBS. Secondary antibodies were incubated for 1 hr. at room temperature. Membranes were washed as above and incubated with SuperSignal West Dura Extended Duration Substrate (Thermo Scientific) for 5 min. Detection was performed using the ChemiDoc Touch Imaging System (Bio-Rad). Image Lab 5.2.1 software (Bio-Rad) was used to quantify the proteins on the western blots.

[5] = tested on: MiaPaCa-2 subcutaneous tumors; test: Surface PS of tumor cells isolated from subcutaneous xenografts after GEM in vivo; parameters: species or system mouse
Procedure: as §1
For assessment of surface PS, when the subcutaneous tumors were 100-300 mm^3, some mice were treated with 40 mg/kg GEM and the tumors were removed 48 hr. later. The tumors were minced then incubated with 5 ml of collagenase type IV (200 U/ml) at 37° C. for 2 hrs. The cells were passed through a 40 μm filter, washed with PBS then stained with annexin V-FITC and analyzed by flow cytometry.

MiaPaCa-2 cells = test: Cell cycle stage targeting in hydroxyurea-synchronized cells; type: cell-based, human; conditions: G1 synchronized MiaPaCa-2; 1 μM GEM 24 hrs or 30 μM SapC-DOPS 48 hrs
Procedure: MiaPaCa-2 were treated with 4 mM hydroxyurea (HU) for synchronization. […] Following drug treatment, percent of cells in G1 and G2/M phase was measured using Hoechst staining*p<0.05**p<0.001, #p<0.0001.
MiaPaCa-2 cells were grown to 70% confluency. Cells were treated with hydroxyurea (HU) in complete medium to a final concentration of 4 mM for 24 hrs.

[6] = Mouse body weight during treatment; type: in vivo; conditions: tumor-bearing mice, compared to control or to GEM alone
Text: The mice treated in FIG. 6 were weighed on the indicated days. […] However, SapC-DOPS prevented the weight loss due to GEM alone. *p<0.01 between saline and GEM alone. #p<0.01 between GEM and SapC-DOPS or GEM and the combination of GEM and SapC-DOPS.

Nc1ccn([C@@H]2O[C@H](CO)[C@@H](O)C2(F)F)c(=O)n1 [GEM, 2′, 2′-difluoro 2′deoxycytidine]
cell death in low vs high surface PS populations (cfPac-1 cells; sorted cells, 50 nM GEM): cell death was more profound in the low surface PS population compared to the high surface PS population | cell killing in low vs high surface PS populations (cfPac-1 cells; sorted cfPac-1 cells, GEM 72 hr, MTT): killed more cells from the low surface PS population compared to the high surface PS population | surface PS in viable (PI-negative) PDAC cells ([1]; sub-toxic GEM, 48 hr, annexin V-FITC): increased surface PS in viable PDAC cells | apoptosis at sub-toxic concentrations ([1]; sub-toxic concentrations of GEM, PDAC cells): < 10% | PS surface expression in normal pancreatic cells [2]: no increased PS surface expression | percentage of cells in G1 phase [3]: significant decrease in the percentage of cells in the G1 phase | percentage of cells in G2/M phase [3]: increased percentage in the G2/M phase | cyclin B1/cyclin D1 protein ratio [4]: an increase in the cyclin B1/cyclin D1 ratio | surface PS in tumor cells isolated from subcutaneous xenografts ([5]; 48 hrs after 40 mg/kg GEM in vivo): induced an increase in surface PS in tumor cells | cells killed by the GEM treatment ([5]; in vitro or in vivo, FIG. 4 treatments): Less than 10% | targeting of cells when G1 synchronized cells are treated (MiaPaCa-2 cells): increased targeting of G1 cells compared to SapC-DOPS | mouse weight [6]: significant decrease in mouse weight

— patent US12478658B2, “Enhanced efficacy of combination of gemcitabine and phosphatidylserine-targeted nanovesicles against pancreatic cancer” (University of Cincinnati, priority 2020, dated 2025)
